From patent publication US20100311714A1, “1H-IMIDAZO[4,5-c]QUINOLINONE COMPOUNDS” (priority 2009, published 2010)
Like-named read-outs stand apart in the source and are kept apart here.

Legend:
[1] = Parallel Artificial Membrane Permeability Assay (PAMPA) at pH 6.8; format: physicochemical
Method in brief: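 Reported as log Pe, membrane permeability was determined by parallel artificial membrane assay at pH 6.8 per Wohnsland–Faller.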

[2] = target: T1, mTOR (Homo sapiens, UniProt P42345); assay: Biochemical assay for m-TOR by TR-FRET
T1 construct: purchased Invitrogen Corporation (Carlsbad/Calif., USA) PV4753
T1 sequence (P42345 1360-2549 limits assumed): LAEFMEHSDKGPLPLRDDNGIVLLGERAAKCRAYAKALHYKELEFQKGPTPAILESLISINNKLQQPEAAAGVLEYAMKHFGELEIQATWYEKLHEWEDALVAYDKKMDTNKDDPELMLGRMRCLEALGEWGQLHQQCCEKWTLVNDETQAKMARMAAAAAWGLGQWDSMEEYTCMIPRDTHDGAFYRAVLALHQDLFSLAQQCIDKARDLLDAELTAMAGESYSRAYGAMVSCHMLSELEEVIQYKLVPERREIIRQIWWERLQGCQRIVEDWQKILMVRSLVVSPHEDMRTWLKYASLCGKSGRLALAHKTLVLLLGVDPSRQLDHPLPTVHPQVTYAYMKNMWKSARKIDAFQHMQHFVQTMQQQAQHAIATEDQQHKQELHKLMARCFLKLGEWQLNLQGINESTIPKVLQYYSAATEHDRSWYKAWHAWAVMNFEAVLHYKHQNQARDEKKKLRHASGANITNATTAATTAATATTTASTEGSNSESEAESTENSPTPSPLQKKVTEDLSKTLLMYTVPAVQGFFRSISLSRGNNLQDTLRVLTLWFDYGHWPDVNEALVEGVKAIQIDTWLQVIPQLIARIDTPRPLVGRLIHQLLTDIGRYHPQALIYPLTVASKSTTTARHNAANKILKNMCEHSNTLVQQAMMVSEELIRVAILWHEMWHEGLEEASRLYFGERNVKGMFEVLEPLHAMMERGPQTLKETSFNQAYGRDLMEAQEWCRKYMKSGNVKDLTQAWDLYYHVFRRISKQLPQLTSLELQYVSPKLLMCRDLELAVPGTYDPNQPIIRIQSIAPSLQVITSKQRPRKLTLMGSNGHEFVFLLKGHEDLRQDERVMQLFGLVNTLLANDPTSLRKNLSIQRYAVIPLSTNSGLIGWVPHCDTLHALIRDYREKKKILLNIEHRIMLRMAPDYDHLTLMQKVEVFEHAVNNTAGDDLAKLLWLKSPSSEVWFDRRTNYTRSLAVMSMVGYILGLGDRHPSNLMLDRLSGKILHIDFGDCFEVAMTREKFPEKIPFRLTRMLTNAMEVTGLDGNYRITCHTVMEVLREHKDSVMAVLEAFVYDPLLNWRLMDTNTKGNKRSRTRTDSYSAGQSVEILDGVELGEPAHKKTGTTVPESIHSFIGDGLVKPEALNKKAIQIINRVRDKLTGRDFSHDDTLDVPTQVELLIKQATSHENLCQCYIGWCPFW
Method in brief: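 mTOR (0.5 nM) phosphorylates GFP-4EBP1 (400 nM) with 8 μM ATP at rt in 50 mM HEPES pH 7.5, 10 mM MnCl2, 50 mM NaCl, 1 mM EGTA, 1 mM DTT; compounds 0.003–10 μM final. EDTA stop with Tb-anti-p4EBP1[pT46] antibody (0.5 nM); TR-FRET read after 15 min against no-enzyme and vehicle controls.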

[3] = test system: PKB Ser473 phosphorylation in Rat1-myr-HA-p110 alpha cells; assay: Reverse protein array, PKB Ser473 phosphorylation in Rat1-myr-HA-p110 alpha cells; format: cell-based; settings: Rattus norvegicus, 0.5 h, 30 minutes compound incubation, read-out: p-PKB/IC50_alpha
[4] = test system: PKB Ser473 phosphorylation in Rat1-myr-HA-p110 beta cells; assay: Reverse protein array, PKB Ser473 phosphorylation in Rat1-myr-HA-p110 beta cells; format: cell-based; settings: Rattus norvegicus, 0.5 h, 30 minutes compound incubation, read-out: p-PKB/IC50_beta

| Compound | HT-Perm logPe pH6.8 [1] | IC50 ([2]; read-out: EPK_mTOR/IC50) [nM] | IC50 [3] [nM] | IC50 [4] [nM] | HT-perm/logPe pH6.8 [1] | IC50 ([2]; read-out: mTOR/IC50) [nM] |
| --- | --- | --- | --- | --- | --- | --- |
| CCOc1cc(-c2ccc3ncc4c(c3c2)n(-c2cccnc2C)c(=O)n4C)cnc1COC [Example 2.28, 8-(5-Ethoxy-6-methoxymethyl-pyridin-3-yl)-3-methyl-1-(2-methyl-pyridin-3-yl)-1,3-dihydro-imidazo[4,5-c]quinolin-2-one] | −4.3 | 58 | 23.7 | 61 | – | – |
| Cc1ncccc1-n1c(=O)n(C)c2cnc3ccc(-c4cnc(N)c(C(F)(F)F)c4)cc3c21 [Example 2.11, 8-(6-Amino-5-trifluoromethyl-pyridin-3-yl)-3-methyl-1-(2-methyl-pyridin-3-yl)-1,3-dihydro-imidazo[4,5-c]quinolin-2-one] | – | – | 7.02 | 9.92 | −4.0 | 16 |
| CNc1ncc(-c2ccc3ncc4c(c3c2)n(-c2ccc(N3CCC(O)C3)nc2C)c(=O)n4C)cn1 (centres unmarked) [Example 27.2, 1-[6-(3-Hydroxy-pyrrolidin-1-yl)-2-methyl-pyridin-3-yl]-3-methyl-8-(2-methylamino-pyrimidin-5-yl)-1,3-dihydro-imidazo[4,5-c]quinolin-2-one] | −5.1 | 6 | 11.3 | 11.3 | – | – |
| Cc1ncccc1-n1c(=O)n(C)c2cnc3ccc(-c4cnc(N(C)C)nc4)cc3c21 [Example 2.15, 8-(2-Dimethylamino-pyrimidin-5-yl)-3-methyl-1-(2-methyl-pyridin-3-yl)-1,3-dihydro-imidazo[4,5-c]quinolin-2-one] | – | – | 72.4 | 101 | −3.7 | 53 |
| CCNc1cc(-c2ccc3ncc4c(c3c2)n(-c2cccnc2C)c(=O)n4C)cnc1CO [Example 2.31, 8-(5-Ethylamino-6-hydroxymethyl-pyridin-3-yl)-3-methyl-1-(2-methyl-pyridin-3-yl)-1,3-dihydro-imidazo[4,5-c]quinolin-2-one] | −5.8 | < 3 | < 4.57 | 5.7 | – | – |
| CCNc1cc(-c2ccc3ncc4c(c3c2)n(-c2ccc(N3CC(O)C3)nc2C)c(=O)n4C)cnc1CO [Example 29.2, 8-(5-Ethylamino-6-hydroxymethyl-pyridin-3-yl)-1-[6-(3-hydroxy-azetidin-1-yl)-2-methyl-pyridin-3-yl]-3-methyl-1,3-dihydro-imidazo[4,5-c]quinolin-2-one] | −7.1 | 5 | 14 | 32.7 | – | – |
| CCOc1cc(-c2ccc3ncc4c(c3c2)n(-c2ccc(N3CCC3)nc2C)c(=O)n4C)cnc1COC [Example 23.5, 1-(6-Azetidin-1-yl-2-methyl-pyridin-3-yl)-8-(5-ethoxy-6-methoxymethyl-pyridin-3-yl)-3-methyl-1,3-dihydro-imidazo[4,5-c]quinolin-2-one] | −3.8 | 25 | 37.3 | 98.6 | – | – |
| CNc1ncc(-c2ccc3ncc4c(c3c2)n(-c2ncccc2C)c(=O)n4C)cn1 [Example 3.4, 3-Methyl-8-(2-methylamino-pyrimidin-5-yl)-1-(3-methyl-pyridin-2-yl)-1,3-dihydro-imidazo[4,5-c]quinolin-2-one] | – | – | 226 | 527 | −4.7 | 607 |
| CCNc1cc(-c2ccc3ncc4c(c3c2)n(-c2ccc(N3CCC3)nc2C)c(=O)n4C)cnc1CO [Example 23.8, 1-(6-Azetidin-1-yl-2-methyl-pyridin-3-yl)-8-(5-ethylamino-6-hydroxymethyl-pyridin-3-yl)-3-methyl-1,3-dihydro-imidazo[4,5-c]quinolin-2-one] | −5.7 | 4 | 7.3 | < 4.57 | – | – |
| COc1cc(-c2ccc3ncc4c(c3c2)n(-c2ccc(N3CC(O)C3)nc2C)c(=O)n4C)cnc1CO [Example 29.5, 1-[6-(3-Hydroxy-azetidin-1-yl)-2-methyl-pyridin-3-yl]-8-(6-hydroxymethyl-5-methoxy-pyridin-3-yl)-3-methyl-1,3-dihydro-imidazo[4,5-c]quinolin-2-one] | −7.8 | 61 | 197 | 374 | – | – |
| Cc1ncccc1-n1c(=O)n(C)c2cnc3ccc(-c4cncc(N5CCC5)c4)cc3c21 [Example 2.29, 8-(5-Azetidin-1-yl-pyridin-3-yl)-3-methyl-1-(2-methyl-pyridin-3-yl)-1,3-dihydro-imidazo[4,5-c]quinolin-2-one] | −4.3 | 43 | 8.7 | 19.7 | – | – |
| Cn1c(=O)n(-c2cccnc2F)c2c3cc(-c4cnc(N)c(C(F)(F)F)c4)ccc3ncc21 [Example 6.2, 8-(6-Amino-5-trifluoromethyl-pyridin-3-yl)-1-(2-fluoro-pyridin-3-yl)-3-methyl-1,3-dihydro-imidazo[4,5-c]quinolin-2-one] | – | – | 4.57 | 10.2 | −3.8 | 15 |
| CNc1ncc(-c2ccc3ncc4c(c3c2)n(-c2ccc(N3CC(O)C3)nc2C)c(=O)n4C)cc1C(F)(F)F [Example 29.4, 1-[6-(3-Hydroxy-azetidin-1-yl)-2-methyl-pyridin-3-yl]-3-methyl-8-(6-methylamino-5-trifluoromethyl-pyridin-3-yl)-1,3-dihydro-imidazo[4,5-c]quinolin-2-one] | −5 | 12 | 8 | 21.9 | – | – |
| Cc1nc(N2CCCC2)ccc1-n1c(=O)n(C)c2cnc3ccc(-c4cncc(C(C)(C)O)c4)cc3c21 [Example 25.3, 8-[5-(1-Hydroxy-1-methyl-ethyl)-pyridin-3-yl]-3-methyl-1-(2-methyl-6-pyrrolidin-1-yl-pyridin-3-yl)-1,3-dihydro-imidazo[4,5-c]quinolin-2-one] | −4.5 | 12 | 13.9 | 30.6 | – | – |
| CNc1ncc(-c2ccc3ncc4c(c3c2)n(-c2ccc(N3CC(O)C3)nc2C)c(=O)n4C)cc1F [Example 29.3, 8-(5-Fluoro-6-methylamino-pyridin-3-yl)-1-[6-(3-hydroxy-azetidin-1-yl)-2-methyl-pyridin-3-yl]-3-methyl-1,3-dihydro-imidazo[4,5-c]quinolin-2-one] | −5.1 | 8 | 21.9 | 31.9 | – | – |
| COc1ccc(-c2ccc3ncc4c(c3c2)n(-c2cccnc2C)c(=O)n4C)cc1OC [Example 2.9, 8-(3,4-Dimethoxy-phenyl)-3-methyl-1-(2-methyl-pyridin-3-yl)-1,3-dihydro-imidazo[4,5-c]quinolin-2-one] | – | – | 8.4 | 15.7 | −3.3 | 23 |

Now from value to molecule:

| HT-Perm logPe pH6.8 [1] | IC50 ([2]; read-out: EPK_mTOR/IC50) [nM] | IC50 [3] [nM] | IC50 [4] [nM] | HT-perm/logPe pH6.8 [1] | IC50 ([2]; read-out: mTOR/IC50) [nM] | Compound |
| --- | --- | --- | --- | --- | --- | --- |
| −4.1 | 21 | 14.6 | 19.3 | – | – | CNc1ncc(-c2ccc3ncc4c(c3c2)n(-c2ccc(C(C)(C)O)nc2C)c(=O)n4C)cc1F [Example 31.1, 8-(5-Fluoro-6-methylamino-pyridin-3-yl)-1-[6-(1-hydroxy-1-methyl-ethyl)-2-methyl-pyridin-3-yl]-3-methyl-1,3-dihydro-imidazo[4,5-c]quinolin-2-one] |
| −4.5 | 9 | 10 | 11 | – | – | CNc1ncc(-c2ccc3ncc4c(c3c2)n(-c2ccc(N3CC[C@H](O)C3)nc2C)c(=O)n4C)cc1C(F)(F)F [Example 32.5, 1-[6-((S)-3-Hydroxy-pyrrolidin-1-yl)-2-methyl-pyridin-3-yl]-3-methyl-8-(6-methylamino-5-trifluoromethyl-pyridin-3-yl)-1,3-dihydro-imidazo[4,5-c]quinolin-2-one] |
| −4.4 | 95 | – | – | – | – | Cc1nc(C(C)(C)O)ccc1-n1c(=O)n(C)c2cnc3ccc(-c4cncc(C(C)(C)C#N)c4)cc3c21 [Example 31.6, 2-(5-{1-[6-(1-Hydroxy-1-methyl-ethyl)-2-methyl-pyridin-3-yl]-3-methyl-2-oxo-2,3-dihydro-1H-imidazo[4,5-c]quinolin-8-yl}-pyridin-3-yl)-2-methyl-propionitrile] |
| −3.7 | 75 | – | – | – | – | CCOc1ccc(-c2ccc3ncc4c(c3c2)n(-c2ccc(C(C)(C)O)nc2C)c(=O)n4C)cn1 [Example 31.4, 8-(6-Ethoxy-pyridin-3-yl)-1-[6-(1-hydroxy-1-methyl-ethyl)-2-methyl-pyridin-3-yl]-3-methyl-1,3-dihydro-imidazo[4,5-c]quinolin-2-one] |
| −4.3 | 122 | – | – | – | – | Cc1nc(C(C)(C)O)ccc1-n1c(=O)n(C)c2cnc3ccc(-c4cncc(C5(C#N)CCC5)c4)cc3c21 [Example 31.8, 1-(5-{1-[6-(1-Hydroxy-1-methyl-ethyl)-2-methyl-pyridin-3-yl]-3-methyl-2-oxo-2,3-dihydro-1H-imidazo[4,5-c]quinolin-8-yl}-pyridin-3-yl)-cyclobutanecarbonitrile] |
| −4.6 | 21 | – | – | – | – | CCNc1ncc(-c2ccc3ncc4c(c3c2)n(-c2ccc(C(C)(C)O)nc2C)c(=O)n4C)cn1 [Example 31.7, 8-(2-Ethylamino-pyrimidin-5-yl)-1-[6-(1-hydroxy-1-methyl-ethyl)-2-methyl-pyridin-3-yl]-3-methyl-1,3-dihydro-imidazo[4,5-c]quinolin-2-one] |
